Source: PubChem BioAssay AID977605 (Broad Institute, 2014)
Activity calls are given as the source filed them.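 Rule for the calls: active = fitted curve reaches 40% activation below the top valid tested dose, in every test run; inconclusive = test runs disagree on the call; inactive = the rest, including effects opposite to the expected direction.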

Assay: E-selectin inducers in HUVECs, dose response, imaging, HUVEC, cherry-picked samples (AID 977605);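 note: signal is the share of imaged cells scored positive for E-selectin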
Conditions: HUVEC E-selectin immunostaining, at 18 µM (top of the series), percent of TNF-alpha response over vehicle

Structure (SMILES) | activation
C[C@H](CO)N1C[C@H](C)[C@H](CN(C)C(=O)Nc2ccc3c(c2)OCO3)Oc2ccc(NC(=O)CCCCCC(=O)Nc3ccccc3N)cc2CC1=O | 0.255% (inactive)

Same assay, conditions: HUVEC E-selectin immunostaining, at 19.5 µM (top of the series), percent of TNF-alpha response over vehicle

Structure (SMILES) | activation
CCCC#Cc1ccc2c(c1)O[C@@H](CN(C)S(=O)(=O)c1cccc(OC)c1)[C@@H](C)CN([C@@H](C)CO)S2(=O)=O | 0.13% (inactive)
C[C@H]1CN([C@@H](C)CO)C(=O)c2cccc(NC(=O)c3nc4ccccc4s3)c2O[C@@H]1CN(C)Cc1ccc(C(F)(F)F)cc1 | -0.231% (inactive)
C[C@@H]1CN([C@H](C)CO)C(=O)c2cc(NS(=O)(=O)c3ccc(F)cc3)ccc2O[C@@H](C)CCCCO[C@@H]1CN(C)S(C)(=O)=O | 3.44% (inactive)
CC(C)NC(=O)Nc1ccc2c(c1)C(=O)N([C@@H](C)CO)C[C@H](C)[C@H](CN(C)Cc1ccc(C(F)(F)F)cc1)O2 | 0.054% (inactive)
C[C@@H]1CN([C@H](C)CO)C(=O)c2cc(NC(=O)Cn3cnnn3)ccc2O[C@@H]1CN(C)Cc1ccc(Oc2ccccc2)cc1 | -0.117% (inactive)
C[C@H]1CN([C@@H](C)CO)C(=O)c2cc(N(C)C)ccc2O[C@H]1CN(C)Cc1ccc(C(=O)O)cc1 | 0.082% (inactive)
COc1ccc(NC(=O)Nc2ccc3c(c2)C(=O)N([C@@H](C)CO)C[C@H](C)[C@@H](CN(C)C)O3)cc1 | 1.42% (inactive)
CC1CN(S(=O)(=O)c2ccc(F)cc2)C(C)N1C(=O)N1CCOCC1 (configuration not stated) | -0.215% (inactive)
C[C@@H]1CN([C@@H](C)CO)C(=O)c2cccc(NC(=O)Nc3ccc(F)cc3)c2O[C@H]1CN(C)CC1CCCCC1 | -0.153% (inactive)
C[C@@H]1CN([C@@H](C)CO)C(=O)Cc2cc(NC(=O)Cn3cnnn3)ccc2O[C@H]1CN(C)C(=O)Nc1ccc(F)cc1 | 0.031% (inactive)
COc1ccccc1CNC(=O)[C@@H]1CCCN1S(=O)(=O)c1ccc(Cl)cc1 | -0.15% (inactive)
CCOC(=O)N1CCN=C1SCc1ccc(Cl)c(Cl)c1 | 5.27% (inactive)
CC(C)NC(=O)N(C)C[C@@H]1Oc2ccc(NC(=O)Cc3cn(C)c4ccccc34)cc2C(=O)N([C@H](C)CO)C[C@H]1C | 0.047% (inactive)
COc1ccc(S(=O)(=O)Nc2ccc3c(c2)C(=O)N([C@H](C)CO)C[C@@H](C)[C@H](CN(C)Cc2ccc(Cl)c(Cl)c2)O3)cc1 | -0.125% (inactive)
CCCCC1C(=O)N(c2ccccc2)N(c2ccc(O)cc2)C1=O (configuration not stated) | -0.246% (inactive)
COC(=O)CCCn1cc(CN2CC(N3CCN(Cc4ccccc4F)CC3)CS2(=O)=O)nn1 (configuration not stated) | -0.246% (inactive)
Cc1noc(C)c1S(=O)(=O)Nc1ccc2c(c1)CC(=O)N([C@H](C)CO)C[C@H](C)[C@@H](CN(C)C(=O)Nc1cccc3ccccc13)O2 | -0.095% (inactive)
Cc1noc(C)c1S(=O)(=O)N(C)C[C@H]1Oc2ccc(NS(C)(=O)=O)cc2CC(=O)N([C@@H](C)CO)C[C@H]1C | 0.259% (inactive)
Cc1ccc(S(=O)(=O)Nc2cc(-c3ccccc3)nn2C)cc1Cl | -0.007% (inactive)
CCn1c(SCC(=O)Nc2cccc(C)c2)nc2c(c1=O)SC(C)C2 (configuration not stated) | -0.269% (inactive)
C[C@@H]1CN([C@@H](C)CO)C(=O)Cc2cc(NC(=O)Nc3ccc(F)cc3)ccc2O[C@@H]1CN(C)S(=O)(=O)c1cn(C)cn1 | -0.041% (inactive)
C[C@@H]1CN([C@H](C)CO)C(=O)c2cc(C3=CCCC3)cnc2O[C@@H]1CN(C)C(=O)Nc1ccccc1 | 0.119% (inactive)
C[C@H](CO)N1C[C@H](C)[C@@H](CN(C)S(=O)(=O)c2ccc(Cl)cc2)Oc2ccc(NS(=O)(=O)c3ccc(F)cc3)cc2CC1=O | -0.113% (inactive)
O=C(NC(=S)N1CCN(c2ccc([N+](=O)[O-])cc2)CC1)c1ccccc1 | -0.117% (inactive)
C[C@H](CO)N1C[C@H](C)[C@H](CN(C)C(=O)Nc2ccc(C(F)(F)F)cc2)Oc2ccc(NC(=O)Cn3cnnn3)cc2CC1=O | 0.063% (inactive)
COc1ccccc1CSc1nc2c(c(=O)n(C)c(=O)n2C)n1C | -0.003% (inactive)

Structure (SMILES) | activation
Cc1noc(C)c1S(=O)(=O)Nc1ccc2c(c1)C(=O)N([C@H](C)CO)C[C@@H](C)[C@H](CN(C)Cc1ccc3c(c1)OCO3)O2 | -0.134% (inactive)
C[C@H]1CN([C@@H](C)CO)C(=O)c2cccc(NS(C)(=O)=O)c2O[C@@H]1CN(C)Cc1ccc(Oc2ccccc2)cc1 | 0.027% (inactive)
C[C@H]1CN([C@@H](C)CO)C(=O)Cc2cc(NC(=O)C3CCCCC3)ccc2O[C@H]1CN(C)C(=O)NC1CCCCC1 | -0.185% (inactive)
C[C@H]1CN([C@@H](C)CO)C(=O)c2cccc(NC(=O)Nc3ccc(F)cc3)c2O[C@H]1CN(C)Cc1ccncc1 | 0.058% (inactive)
C[C@H](CO)N1C[C@H](C)[C@@H](CN(C)S(C)(=O)=O)Oc2ccc(NC(=O)CCCCCC(=O)Nc3ccccc3N)cc2CC1=O | 0.149% (inactive)
CC1=NC(C)(C)Cc2c(C)cccc21 | -0.148% (inactive)
C[C@@H]1CN([C@H](C)CO)S(=O)(=O)c2ccc(-c3ccc(F)cc3)cc2O[C@@H]1CN(C)CC1CC1 | 0.158% (inactive)
C[C@@H]1CN([C@H](C)CO)C(=O)Cc2cc(NC(=O)c3ccncc3)ccc2O[C@H]1CN(C)S(C)(=O)=O | -0.058% (inactive)
COc1ccc(C(=O)N(CCc2ccccc2)Cc2ccccc2)c(OC)n1 | -0.136% (inactive)
COc1ccc(S(=O)(=O)Nc2ccc3c(c2)C(=O)N([C@@H](C)CO)C[C@H](C)[C@@H](CN(C)C(=O)Nc2cccc4ccccc24)O3)cc1 | -0.208% (inactive)
Cc1noc(C)c1NC(=O)Nc1ccc2c(c1)CC(=O)N([C@@H](C)CO)C[C@H](C)[C@@H](CN(C)S(=O)(=O)c1ccccc1)O2 | -0.1% (inactive)
COc1ccccc1-c1nnc(NC(=O)CSc2nncn2C)s1 | -0.056% (inactive)
CN(C)CCN1CCN(C2CN(Cc3cn(Cc4ccc(C(F)(F)F)cc4)nn3)S(=O)(=O)C2)CC1 (configuration not stated) | 1.57% (inactive)
Cc1cc(C(=O)Nc2ccc(C)c(C)c2)n(-c2ccccc2)n1 | 0.076% (inactive)
CCOc1ccc(S(=O)(=O)N2CCC(C(=O)NCc3cccnc3)CC2)cc1 | -0.239% (inactive)
C[C@@H]1CN([C@H](C)CO)C(=O)c2cc(N(C)C)ccc2O[C@@H]1CN(C)C(=O)Nc1ccc2c(c1)OCO2 | 0.018% (inactive)
CC(C)NC(=O)Nc1ccc2c(c1)CC(=O)N([C@@H](C)CO)C[C@H](C)[C@@H](CN(C)Cc1ccc(C(=O)O)cc1)O2 | 0.001% (inactive)
C[C@H]1CN([C@@H](C)CO)C(=O)c2cccc(NC(=O)c3ccncc3)c2O[C@H]1CN(C)Cc1ccc(C(=O)Nc2ccccc2N)cc1 | 0.016% (inactive)
CCCCc1c(C)nc2ccc(C)cc2c1SCCC(=O)O | -0.168% (inactive)
CC(=O)N(C)C[C@@H]1Oc2cc(C#Cc3ccccn3)ccc2S(=O)(=O)N([C@H](C)CO)C[C@@H]1C | -0.123% (inactive)
C[C@@H]1CN([C@H](C)CO)C(=O)c2cc(NC(=O)Cc3ccccc3)ccc2O[C@H]1CN(C)C(=O)NC1CCCCC1 | 0.096% (inactive)
COc1ccc(C#Cc2ccc3c(c2)O[C@@H](CN(C)C(=O)Nc2cccc(OC)c2)[C@H](C)CN([C@@H](C)CO)S3(=O)=O)cc1 | 4.46% (inactive)
COc1ccccc1N(C(=O)c1snc(C(N)=O)c1N)C(C(=O)NCc1ccccc1)c1ccc(C)o1 (configuration not stated) | -0.235% (inactive)
Cc1cc(C(=O)Nc2cccc3c2O[C@@H](CN(C)S(=O)(=O)c2ccc(F)cc2)[C@@H](C)CN([C@H](C)CO)C3=O)n(C)n1 | 0.077% (inactive)
CCOC(=O)C1CCCN(C(=O)c2cc(S(=O)(=O)N(C)C)ccc2N2CCCC2)C1 (configuration not stated) | 0.51% (inactive)
COc1ccc(CCNS(=O)(=O)c2ccc3c(c2)NC(=O)CS3)cc1OC | -0.024% (inactive)

Same assay, conditions: HUVEC E-selectin immunostaining, at 21 µM (top of the series), percent of TNF-alpha response over vehicle

Structure (SMILES) | activation
COc1ccc(S(=O)(=O)Nc2ccc3c(c2)C(=O)N([C@@H](C)CO)C[C@H](C)[C@H](CN(C)S(=O)(=O)c2ccc(Cl)cc2)O3)cc1 | 0.145% (inactive)
C[C@@H]1CN([C@H](C)CO)C(=O)c2cc(NS(=O)(=O)c3cn(C)cn3)ccc2O[C@@H]1CN(C)C(=O)Nc1ccc2c(c1)OCO2 | -0.098% (inactive)
C[C@H]1CN([C@@H](C)CO)C(=O)Cc2cc(NC(=O)Nc3ccc4c(c3)OCO4)ccc2O[C@@H]1CN(C)C | -0.039% (inactive)
COc1ccc(S(=O)(=O)Nc2cccc3c2O[C@H](CN(C)C(=O)Nc2c(C)noc2C)[C@@H](C)CN([C@@H](C)CO)C3=O)cc1 | -0.092% (inactive)
COc1ccc(CN(C)C[C@H]2Oc3ccc(NC(=O)Nc4c(C)noc4C)cc3C(=O)N([C@@H](C)CO)C[C@H]2C)cc1 | 0.014% (inactive)
C[C@H]1CN([C@@H](C)CO)C(=O)Cc2cc(NS(C)(=O)=O)ccc2O[C@@H]1CN(C)Cc1ccc(Oc2ccccc2)cc1 | 4.65% (inactive)
C[C@H]1CN([C@@H](C)CO)C(=O)Cc2cc(NC(=O)Nc3ccc4c(c3)OCO4)ccc2O[C@H]1CN(C)S(=O)(=O)c1cn(C)cn1 | -0.009% (inactive)
C[C@H]1CN([C@@H](C)CO)C(=O)c2cc(NC(=O)Nc3ccc(F)cc3)ccc2O[C@H]1CN(C)S(=O)(=O)c1cccs1 | 2.05% (inactive)
C[C@H](CO)N1C[C@H](C)[C@H](CN(C)C(=O)c2ccccc2)OCc2ccccc2-c2c(n(C)c3ccccc23)C1=O | -0.093% (inactive)
COc1ccc(S(=O)(=O)N(C)C[C@@H]2Oc3ccc(NC(=O)CCCN(C)C)cc3C(=O)N([C@@H](C)CO)C[C@@H]2C)cc1 | -0.143% (inactive)
C[C@H]1CN([C@@H](C)CO)C(=O)c2cc(NC(=O)Nc3ccc(C(F)(F)F)cc3)ccc2O[C@@H]1CN(C)S(=O)(=O)c1ccccc1 | 0.012% (inactive)
C[C@H]1CN([C@@H](C)CO)C(=O)c2cc(NC(=O)Cn3cnnn3)ccc2O[C@@H]1CN(C)Cc1ccc2c(c1)OCO2 | -0.073% (inactive)
CC(C)NC(=O)N(C)C[C@H]1Oc2ccc(NC(=O)CCC(F)(F)F)cc2CC(=O)N([C@@H](C)CO)C[C@H]1C | 5.5% (inactive)
C[C@H](CO)N1C[C@H](C)[C@@H](CN(C)C)Oc2c(NC(=O)CCCCCC(=O)Nc3ccccc3N)cccc2C1=O | -0.097% (inactive)
